Test results taken from PubChem BioAssay AID1259407 (Chemical Carcinogenesis Research Information System (CCRIS), 2018).
Active and inactive are the calls of the source. The rule behind the calls is not given here.

System: CCRIS mutagenicity, Ames/micronucleus/aberration tests
Assay: CCRIS mutagenicity studies
[1] = Test System: AMES SALMONELLA TYPHIMURIUM, Strain/Indicator: TA100, Metabolic Activation: RAT, LIVER, S-9, PHENOBARBITAL AND 5,6-BENZOFLAVONE, Method: PREINCUBATION
[2] = Test System: AMES SALMONELLA TYPHIMURIUM, Strain/Indicator: TA98, Metabolic Activation: NONE, Method: STANDARD PLATE
[3] = Test System: AMES SALMONELLA TYPHIMURIUM, Strain/Indicator: TA100, Metabolic Activation: NONE, Method: STANDARD PLATE
[4] = Test System: AMES SALMONELLA TYPHIMURIUM, Strain/Indicator: TA98, Metabolic Activation: NONE, Method: PREINCUBATION
[5] = Test System: AMES SALMONELLA TYPHIMURIUM, Strain/Indicator: TA1535, Metabolic Activation: NONE, Method: PREINCUBATION
[6] = Test System: AMES SALMONELLA TYPHIMURIUM, Strain/Indicator: TA100, Metabolic Activation: NONE, Method: PREINCUBATION
[7] = Test System: AMES SALMONELLA TYPHIMURIUM, Strain/Indicator: TA1537, Metabolic Activation: NONE, Method: PREINCUBATION

SMILES: Clc1ccnc2ccccc12
- mutagenic call [1]: active; positive

SMILES: COC(=O)c1ccc([N+](=O)[O-])c2c(NCCCN(C)C)c3ccccc3nc12
- mutagenic call [2]: active; positive
- mutagenic call [3]: active; positive

SMILES: O[C@@H]1[C@@H]2O[C@@H]2C=C[C@H]1O
- mutagenic call (Test System: AMES SALMONELLA TYPHIMURIUM, Strain/Indicator: TA97, Metabolic Activation: NONE, Method: PREINCUBATION): inactive; negative
- mutagenic call [4]: inactive; negative
- mutagenic call [5]: active; positive

SMILES: C=C(C)C1CCC(=C)C2C3=C(C[C@@H](C)C3=O)C(=O)C(C)=C[C@@H]12 (stereo not given in full)
- mutagenic call [2]: inactive; negative
- mutagenic call (Test System: AMES SALMONELLA TYPHIMURIUM, Strain/Indicator: TA98, Method: STANDARD PLATE): inactive; negative
- mutagenic call [3]: inactive; negative
- mutagenic call (Test System: AMES SALMONELLA TYPHIMURIUM, Strain/Indicator: TA100, Method: STANDARD PLATE): inactive; negative

SMILES: COCOC
- mutagenic call (Test System: Mouse lymphoma, Strain/Indicator: L5178Y (tk+/tk-), Metabolic Activation: None, Method: Suspension/plate): inactive; negative
- mutagenic call (Test System: Mouse lymphoma, Strain/Indicator: L5178Y (tk+/tk-), Metabolic Activation: Rat, Liver, S-9, Aroclor 1254, Method: Suspension/plate): inactive; negative

SMILES: C[C@H](CCC(=O)O)[C@H]1CC[C@H]2[C@@H]3CC[C@@H]4C[C@H](O)CC[C@]4(C)[C@H]3C[C@H](O)[C@]12C
- mutagenic call [4]: inactive; negative
- mutagenic call (Test System: AMES SALMONELLA TYPHIMURIUM, Strain/Indicator: TA98, Method: PREINCUBATION): inactive; negative
- mutagenic call [3]: inactive; negative
- mutagenic call (Test System: AMES SALMONELLA TYPHIMURIUM, Strain/Indicator: TA100, Metabolic Activation: RAT, LIVER, S-9, AROCLOR 1254, Method: STANDARD PLATE): inactive; negative

SMILES: CCCC(=O)N=c1sn(C(=O)CCC)c2ccc([N+](=O)[O-])cc12
- mutagenic call (Test System: AMES SALMONELLA TYPHIMURIUM, Strain/Indicator: TA100, Metabolic Activation: S-9, Method: STANDARD PLATE): active; positive

SMILES: CC1=CC[C@H]2C(C)=CC[C@@H](C(C)C)[C@@H]2C1
- mutagenic call (End Point: IN VITRO CHROMOSOMAL ABERRATIONS, Test System: CHINESE HAMSTER OVARY CELLS, Metabolic Activation: NONE): inactive; negative
- mutagenic call (End Point: IN VITRO CHROMOSOMAL ABERRATIONS, Test System: CHINESE HAMSTER OVARY CELLS, Metabolic Activation: RAT, LIVER, S-9, AROCLOR 1254): inactive; negative
- mutagenic call (Test System: AMES SALMONELLA TYPHIMURIUM, Strain/Indicator: TA98, Metabolic Activation: HAMSTER, LIVER, S-9, AROCLOR 1254, Method: PREINCUBATION): inactive; negative
- mutagenic call [4]: inactive; negative
- mutagenic call (Test System: AMES SALMONELLA TYPHIMURIUM, Strain/Indicator: TA98, Metabolic Activation: RAT, LIVER, S-9, AROCLOR 1254, Method: PREINCUBATION): inactive; negative
- mutagenic call (Test System: AMES SALMONELLA TYPHIMURIUM, Strain/Indicator: TA100, Metabolic Activation: HAMSTER, LIVER, S-9, AROCLOR 1254, Method: PREINCUBATION): inactive; negative
- mutagenic call [6]: inactive; negative
- mutagenic call (Test System: AMES SALMONELLA TYPHIMURIUM, Strain/Indicator: TA100, Metabolic Activation: RAT, LIVER, S-9, AROCLOR 1254, Method: PREINCUBATION): inactive; negative
- mutagenic call (Test System: AMES SALMONELLA TYPHIMURIUM, Strain/Indicator: TA1535, Metabolic Activation: HAMSTER, LIVER, S-9, AROCLOR 1254, Method: PREINCUBATION): inactive; negative
- mutagenic call [5]: inactive; negative
- mutagenic call (Test System: AMES SALMONELLA TYPHIMURIUM, Strain/Indicator: TA1535, Metabolic Activation: RAT, LIVER, S-9, AROCLOR 1254, Method: PREINCUBATION): inactive; negative
- mutagenic call (Test System: AMES SALMONELLA TYPHIMURIUM, Strain/Indicator: TA1537, Metabolic Activation: HAMSTER, LIVER, S-9, AROCLOR 1254, Method: PREINCUBATION): inactive; negative
- mutagenic call [7]: inactive; negative
- mutagenic call (Test System: AMES SALMONELLA TYPHIMURIUM, Strain/Indicator: TA1537, Metabolic Activation: RAT, LIVER, S-9, AROCLOR 1254, Method: PREINCUBATION): inactive; negative

SMILES: C1=Cc2c3ccccc3cc3c2c1cc1ccccc13
- mutagenic call (Test System: CHINESE HAMSTER OVARY, Strain/Indicator: V-79/6-THIOGUANINE, Metabolic Activation: RAT, LIVER, S-9, AROCLOR 1254, Method: FLASK ASSAY): active; positive
- mutagenic call (Test System: CHINESE HAMSTER V-79, Strain/Indicator: V-79/6-THIOGUANINE, Metabolic Activation: RAT, LIVER, S-9, AROCLOR 1254, Method: SUSPENSION/PLATE): active; positive

SMILES: Cn1cnc2ccc([N+](=O)[O-])cc21
- mutagenic call [2]: active; positive

SMILES: O=[N+]([O-])c1ccc2ccc3cccc4c3c2c1C1OC41 (stereo not given)
- mutagenic call (Test System: AMES SALMONELLA TYPHIMURIUM, Strain/Indicator: TA98(1,8-DNP6), Metabolic Activation: RAT, LIVER, S-9, PHENOBARBITAL AND 5,6-BENZOFLAVONE, Method: PREINCUBATION): active; positive
- mutagenic call (Test System: AMES SALMONELLA TYPHIMURIUM, Strain/Indicator: TA98(NR), Metabolic Activation: NONE, Method: PREINCUBATION): active; positive
- mutagenic call [4]: active; positive
- mutagenic call (Test System: AMES SALMONELLA TYPHIMURIUM, Strain/Indicator: TA98, Metabolic Activation: RAT, LIVER, S-9, PHENOBARBITAL AND 5,6-BENZOFLAVONE, Method: PREINCUBATION): inactive; negative
- mutagenic call [6]: active; positive
- mutagenic call [1]: inactive; negative
- mutagenic call (Test System: CHINESE HAMSTER OVARY, Strain/Indicator: CHO (HGPRT)/6-THIOGUANINE, Metabolic Activation: NONE, Method: STANDARD PLATE): active; positive
- mutagenic call (Test System: CHINESE HAMSTER OVARY, Strain/Indicator: CHO (HGPRT)/6-THIOGUANINE, Metabolic Activation: RAT, LIVER, S-9, AROCLOR 1254, Method: STANDARD PLATE): active; positive
- mutagenic call (Test System: UDS RODENT HEPATOCYTES, Strain/Indicator: THY INCORP, Metabolic Activation: NONE, Method: AUTORADIOGRAPHY): active; positive

SMILES: COc1c(O)c(Cl)c(Cl)c(Cl)c1Cl
- mutagenic call (Test System: CHINESE HAMSTER V-79, Strain/Indicator: V-79/6-THIOGUANINE, Metabolic Activation: NONE, Method: STANDARD PLATE): inactive; negative

SMILES: O.O.O.O.O.[Cd+2].[Cd+2].[Cl-].[Cl-].[Cl-].[Cl-]
- mutagenic call (End Point: In vivo micronucleus, Test System: Bone marrow polychromatic erythrocytes, Species: Mouse, Strain/Sex: C57BL/6J/Han/Male, Route: Oral): inactive; negative
- mutagenic call [4]: inactive; negative
- mutagenic call (Test System: AMES SALMONELLA TYPHIMURIUM, Strain/Indicator: TA98, Metabolic Activation: RAT LIVER S-9, PHENOBARBITAL AND BETA-NAPHTHOFLAVONE, Method: PREINCUBATION): inactive; negative
- mutagenic call (Test System: AMES SALMONELLA TYPHIMURIUM, Strain/Indicator: TA100, Metabolic Activation: RAT LIVER S-9, PHENOBARBITAL AND BETA-NAPHTHOFLAVONE, Method: PREINCUBATION): inactive; negative
- mutagenic call (Test System: AMES SALMONELLA TYPHIMURIUM, Strain/Indicator: TA1535, Metabolic Activation: RAT LIVER S-9, PHENOBARBITAL AND BETA-NAPHTHOFLAVONE, Method: PREINCUBATION): inactive; negative
- mutagenic call [7]: inactive; negative
- mutagenic call (Test System: AMES SALMONELLA TYPHIMURIUM, Strain/Indicator: TA1537, Metabolic Activation: RAT LIVER S-9, PHENOBARBITAL AND BETA-NAPHTHOFLAVONE, Method: PREINCUBATION): inactive; negative
- mutagenic call (Test System: AMES SALMONELLA TYPHIMURIUM, Strain/Indicator: TA1538, Metabolic Activation: NONE, Method: PREINCUBATION): inactive; negative
- mutagenic call (Test System: AMES SALMONELLA TYPHIMURIUM, Strain/Indicator: TA1538, Metabolic Activation: RAT LIVER S-9, PHENOBARBITAL AND BETA-NAPHTHOFLAVONE, Method: PREINCUBATION): inactive; negative
- mutagenic call (Test System: E.COLI, Strain/Indicator: WP2UVRA, Metabolic Activation: NONE, Method: PREINCUBATION): inactive; negative
- mutagenic call (Test System: E.COLI, Strain/Indicator: WP2UVRA, Metabolic Activation: RAT LIVER S-9, PHENOBARBITAL AND BETA-NAPHTHOFLAVONE, Method: PREINCUBATION): inactive; negative

SMILES: Cc1cn2c(N=O)c(-c3ccc([N+](=O)[O-])cc3)nc2s1
- mutagenic call [2]: active; positive
- mutagenic call [3]: active; positive
- mutagenic call (Test System: AMES SALMONELLA TYPHIMURIUM, Strain/Indicator: TA1535, Metabolic Activation: NONE, Method: STANDARD PLATE): inactive; negative
- mutagenic call (Test System: AMES SALMONELLA TYPHIMURIUM, Strain/Indicator: TA1537, Metabolic Activation: NONE, Method: STANDARD PLATE): inactive; negative
- mutagenic call (Test System: AMES SALMONELLA TYPHIMURIUM, Strain/Indicator: TA1538, Metabolic Activation: NONE, Method: STANDARD PLATE): active; positive
